# Results: patent publication US9079913B2, “Spiro-oxindole MDM2 antagonists” (The Regents of the University of Michigan, priority 2009, dated 2015)
# Like-named read-outs stand apart in the source and are kept apart here.
# Key:
# [1] = system: cancer cell lines with wild-type p53 / mutated or deleted p53 (ATCC); assay: Cell growth assay (WST-8), other cancer cell lines; type: cell-based
# [2] = system: Isogenic HCT-116 colon cancer cell lines; assay: cells; type: cell-based;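 further: cells grown in 96-well plates in McCoy's 5A medium with 10% FBS, exposed to compound for 4 days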
# Procedure: Cells were seeded in 96-well flat bottom cell culture plates at a density of 2−3×10^3 cells/well with compounds and incubated for 4 days.
# [3] = biological target: recombinant human His-tagged MDM2 protein (residues 1-118) (Homo sapiens (Human), UniProt Q00987); assay: Fluorescence-polarization MDM2 binding assay;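 further: fluorescence polarization read after three hours of incubation in potassium phosphate buffer containing bovine gamma globulin and Triton X-100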
# Sequence of recombinant human His-tagged MDM2 protein (residues 1-118) (Q00987 1-118): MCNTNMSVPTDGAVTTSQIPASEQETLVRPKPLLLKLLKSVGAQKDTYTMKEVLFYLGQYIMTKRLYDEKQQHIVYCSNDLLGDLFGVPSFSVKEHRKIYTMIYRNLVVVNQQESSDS
# [4] = Homo sapiens, LNCaP, Table 19A, LNCAP cells, p53 wild-type, cell growth, read-out: LNCAP (p53 wild-type) IC50
# [5] = Homo sapiens, PC-3, Table 19A, PC-3 cells, deleted p53, cell growth, read-out: PC-3 (deleted p53) IC50
# [6] = Homo sapiens, HCT-116, read-out: HCT-116 (p53-/-) IC50, Table 19A, HCT-116 p53-/-, cell growth
# [7] = Homo sapiens, HCT-116, read-out: HCT-116 (p53 wild-type) IC50, Table 19A, HCT-116 p53 wild-type, cell growth
# [8] = Table 19A, FP binding assay, read-out: MDM2 IC50
# [9] = Table 19B, read-out: Binding affinities to MDM2 protein as determined by FP based assay IC50
# [10] = Homo sapiens, SJSA-1, Table 19A, SJSA-1 cells, p53 wild-type, cell growth, read-out: SJSA-1 (p53 wild-type) IC50
SMILES,"IC50 [1, 4]","IC50 [1, 5]","IC50 [2, 6]","IC50 [2, 7]","IC50 [3, 8]","IC50 ([1]; Table 19B, LNCaP cells, read-out: Inhibition of cell growth IC50, LNCaP)","IC50 ([1]; Table 19B, PC3 cells, read-out: Inhibition of cell growth IC50, PC3)","IC50 ([2]; read-out: Inhibition of cell growth IC50, HCT116 p53 KO, Table 19B, HCT116 p53 KO)","IC50 ([2]; read-out: Inhibition of cell growth IC50, HCT116 p53 WT, Table 19B, HCT116 p53 WT)","IC50 [3, 9]","IC50 ([1]; Homo sapiens, LNCaP, Table 19B, LNCaP cells, read-out: Inhibition of cell growth IC50, LNCaP)","IC50 ([1]; Homo sapiens, PC-3, Table 19B, PC3 cells, read-out: Inhibition of cell growth IC50, PC3)","IC50 ([2]; Homo sapiens, HCT-116, read-out: Inhibition of cell growth IC50, HCT116 p53 KO, Table 19B, HCT116 p53 KO)","IC50 ([2]; Homo sapiens, HCT-116, read-out: Inhibition of cell growth IC50, HCT116 p53 WT, Table 19B, HCT116 p53 WT)","IC50 [1, 10]"
CN(C)CC(=O)N1CCN(C(=O)[C@@H]2N[C@H](CC(C)(C)C)[C@]3(C(=O)Nc4cc(Cl)c(F)cc43)[C@H]2c2cccc(Cl)c2)CC1 [MI-744],1700 ± 100 nM,7700 ± 3100 nM,5.7 ± 3.4 µM,2.4 ± 0.2 µM,< 10000 nM,–,–,–,–,–,–,–,–,–,–
CN(C)CCC(=O)N1CCN(C(=O)[C@@H]2N[C@H](CC(C)(C)C)[C@]3(C(=O)Nc4cc(Cl)c(F)cc43)[C@H]2c2cccc(Cl)c2)CC1 [MI-746],2200 ± 400 nM,6900 ± 1200 nM,6.7 ± 1.8 µM,2.3 ± 0.1 µM,< 10000 nM,–,–,–,–,–,–,–,–,–,–
CC(C)(C)C[C@H]1N[C@@H](C(=O)NCC[C@H]2CC[C@@H](O)C2)[C@H](c2cccc(Cl)c2F)[C@@]12C(=O)Nc1cc(Cl)ccc12 [MI-754],–,–,–,–,–,< 3000 nM,> 5000 nM,> 5 µM,< 3 µM,< 1000 nM,–,–,–,–,–
CC(C)(C)C[C@H]1N[C@@H](C(=O)NCCC2CCC(O)C2)[C@H](c2cccc(Cl)c2F)[C@@]12C(=O)Nc1cc(Cl)ccc12 (some centres unmarked) [MI-755],–,–,–,–,–,–,–,–,–,< 1000 nM,< 3000 nM,> 10000 nM,> 10 µM,< 3 µM,–
CC(C)(C)C[C@H]1N[C@@H](C(=O)NCCN2CCC(O)CC2)[C@H](c2cccc(Cl)c2)[C@@]12C(=O)Nc1cc(Cl)c(F)cc12 [MI-759],1400 ± 100 nM,5500 ± 2300 nM,5.2 ± 1 µM,1.4 ± 0.6 µM,< 1000 nM,–,–,–,–,–,–,–,–,–,–
CC(C)(C)C[C@H]1N[C@@H](C(=O)NC2CCC(N)CC2)[C@H](c2cccc(Cl)c2)[C@@]12C(=O)Nc1cc(Cl)c(F)cc12 (some centres unmarked) [MI-776],2400 nM,–,–,2.7 µM,< 1000 nM,–,–,–,–,–,–,–,–,–,3200 nM
CC(C)(C)C[C@H]1N[C@@H](C(=O)NC2CCC(NS(=O)(=O)C(F)(F)F)CC2)[C@H](c2cccc(Cl)c2)[C@@]12C(=O)Nc1cc(Cl)c(F)cc12 (some centres unmarked) [MI-777],6600 nM,–,7.8 µM,8.9 µM,< 5000 nM,–,–,–,–,–,–,–,–,–,9200 nM
CC(C)(C)C[C@H]1N[C@@H](C(=O)NC2CCNCC2)[C@H](c2cccc(Cl)c2F)[C@@]12C(=O)Nc1cc(Cl)ccc12 [MI-782],–,–,4.7 µM,0.7 µM,< 1000 nM,–,–,–,–,–,–,–,–,–,1200 nM
CC(=O)N1CCC(NC(=O)[C@@H]2N[C@H](CC(C)(C)C)[C@]3(C(=O)Nc4cc(Cl)ccc43)[C@H]2c2cccc(Cl)c2F)CC1 [MI-783],–,–,18.5 µM,0.9 µM,< 500 nM,–,–,–,–,–,–,–,–,–,1100 nM
CC(C)(C)C[C@H]1N[C@@H](C(=O)NC2CCN(CCO)CC2)[C@H](c2cccc(Cl)c2F)[C@@]12C(=O)Nc1cc(Cl)ccc12 [MI-784],–,–,10.3 µM,0.4 µM,< 500 nM,–,–,–,–,–,–,–,–,–,700 nM
CC(C)(C)C[C@H]1N[C@@H](C(=O)NC2CCN(CC(C)(C)O)CC2)[C@H](c2cccc(Cl)c2F)[C@@]12C(=O)Nc1cc(Cl)ccc12 [MI-785],–,–,8 µM,0.5 µM,< 500 nM,–,–,–,–,–,–,–,–,–,700 nM
CC(C)(C)C[C@H]1N[C@@H](C(=O)NCC[C@](C)(O)CO)[C@H](c2cccc(Cl)c2F)[C@@]12C(=O)Nc1cc(Cl)ccc12 [MI-789],< 3000 nM,> 10000 nM,> 10 µM,< 3 µM,< 3000 nM,–,–,–,–,–,–,–,–,–,< 3000 nM
CC(C)(C)C[C@H]1N[C@@H](C(=O)NCC[C@@](C)(O)CO)[C@H](c2cccc(Cl)c2F)[C@@]12C(=O)Nc1cc(Cl)ccc12 [MI-790],< 3000 nM,> 10000 nM,> 10 µM,< 3 µM,< 3000 nM,–,–,–,–,–,–,–,–,–,< 3000 nM
O=C(NC1CCC(O)CC1)[C@@H]1N[C@H](CC2CCCC2)[C@]2(C(=O)Nc3cc(Cl)ccc32)[C@H]1c1cccc(Cl)c1F (some centres unmarked) [MI-791],< 3000 nM,> 10000 nM,> 10 µM,< 3 µM,< 3000 nM,–,–,–,–,–,–,–,–,–,< 3000 nM
O=C(NC1CCC(O)CC1)[C@@H]1N[C@H](C=C2CCCC2)[C@]2(C(=O)Nc3cc(Cl)ccc32)[C@H]1c1cccc(Cl)c1F (some centres unmarked) [MI-792],< 10000 nM,> 20000 nM,> 20 µM,< 10 µM,< 5000 nM,–,–,–,–,–,–,–,–,–,< 10000 nM
CC(C)(C)C[C@H]1N[C@@H](C(=O)NC2CCC(OC(=O)CN)CC2)[C@H](c2cccc(Cl)c2F)[C@@]12C(=O)Nc1cc(Cl)ccc12 (some centres unmarked) [MI-901],< 3000 nM,> 5000 nM,> 10 µM,< 3 µM,< 1000 nM,–,–,–,–,–,–,–,–,–,< 3000 nM
CC(C)[C@H](N)C(=O)OC1CCC(NC(=O)[C@@H]2N[C@H](CC(C)(C)C)[C@]3(C(=O)Nc4cc(Cl)ccc43)[C@H]2c2cccc(Cl)c2F)CC1 (some centres unmarked) [MI-902],< 3000 nM,4000 nM,5.9 µM,< 3 µM,< 3000 nM,–,–,–,–,–,–,–,–,–,< 3000 nM
CC(C)C[C@H](N)C(=O)OC1CCC(NC(=O)[C@@H]2N[C@H](CC(C)(C)C)[C@]3(C(=O)Nc4cc(Cl)ccc43)[C@H]2c2cccc(Cl)c2F)CC1 (some centres unmarked) [MI-903],< 3000 nM,3500 nM,12.1 µM,< 3 µM,< 3000 nM,–,–,–,–,–,–,–,–,–,< 3000 nM
CC[C@H](C)[C@H](N)C(=O)OC1CCC(NC(=O)[C@@H]2N[C@H](CC(C)(C)C)[C@]3(C(=O)Nc4cc(Cl)ccc43)[C@H]2c2cccc(Cl)c2F)CC1 (some centres unmarked) [MI-904],< 3000 nM,3100 nM,6.1 µM,< 3 µM,< 1000 nM,–,–,–,–,–,–,–,–,–,< 3000 nM
CC(C)[C@@H](N)C(=O)OC1CCC(NC(=O)[C@@H]2N[C@H](CC(C)(C)C)[C@]3(C(=O)Nc4cc(Cl)ccc43)[C@H]2c2cccc(Cl)c2F)CC1 (some centres unmarked) [MI-905],< 3000 nM,3900 nM,8 µM,< 3 µM,< 1000 nM,–,–,–,–,–,–,–,–,–,< 3000 nM
C[C@@H](N)C(=O)OC1CCC(NC(=O)[C@@H]2N[C@H](CC(C)(C)C)[C@]3(C(=O)Nc4cc(Cl)ccc43)[C@H]2c2cccc(Cl)c2F)CC1 (some centres unmarked) [MI-906],< 3000 nM,3600 nM,9.1 µM,< 3 µM,< 1000 nM,–,–,–,–,–,–,–,–,–,< 3000 nM
CC(C)(C)C[C@H]1N[C@@H](C(=O)NC2CCC(OC(=O)C(C)(C)N)CC2)[C@H](c2cccc(Cl)c2F)[C@@]12C(=O)Nc1cc(Cl)ccc12 (some centres unmarked) [MI-907],< 3000 nM,3000 nM,7 µM,< 3 µM,< 1000 nM,–,–,–,–,–,–,–,–,–,< 3000 nM
CC(C)(C)C[C@H]1N[C@@H](C(=O)NC2CCC(OC(=O)[C@H](Cc3ccccc3)NC(=O)OC(C)(C)C)CC2)[C@H](c2cccc(Cl)c2F)[C@@]12C(=O)Nc1cc(Cl)ccc12 (some centres unmarked) [MI-908],4300 nM,~30000 nM,> 30 µM,5.3 µM,> 10000 nM,–,–,–,–,–,–,–,–,–,22500 nM
CC(C)(C)C[C@H]1N[C@@H](C(=O)NC2CN(CC(C)(C)O)C2)[C@H](c2cccc(Cl)c2F)[C@@]12C(=O)Nc1cc(Cl)ccc12 [MI-909],< 3000 nM,> 5000 nM,> 5 µM,< 3 µM,< 1000 nM,–,–,–,–,–,–,–,–,–,< 3000 nM
CC(C)(C)C[C@H]1N[C@@H](C(=O)NC2CCC(OC(=O)[C@@H](N)Cc3ccccc3)CC2)[C@H](c2cccc(Cl)c2F)[C@@]12C(=O)Nc1cc(Cl)ccc12 (some centres unmarked) [MI-910],< 3000 nM,7000 nM,9.8 µM,< 3 µM,< 1000 nM,–,–,–,–,–,–,–,–,–,< 3000 nM
